This note sets out measurements from US5208243A, “5-isoquinolinesulfonamides” (Adir et Compagnie, priority 1991, dated 1993).

One assay concerns rat aortas. The assay is described as follows: Contraction of rat aortas induced by potassium depolarization (hyperpotassium medium). Also noted: species or system WISTAR rat. To be noted: 80 mM KCl, 37 mM NaCl, read-out: IC50 (concentration inhibiting by 50% the contraction of rat aortas induced by potassium depolarization). The source says:
The rings are linked to a STATHAM tension sensor (UC2-GOULD).

Another assay relates to rabbit aortas. The assay is described as follows: Contraction of rabbit aortas induced by noradrenaline in a medium without calcium. Also noted: species or system New Zealand rabbit. To be noted: Oryctolagus cuniculus, 0.5 h, rabbit aorta, incubated 30 minutes; for inhibition at 1 µM: compound 10^-6 M. How it is done: Studies are carried out on rings, 3 mm in length, […] The vascular rings are immersed in a normal physiological solution or in a physiological solution lacking calcium (+0.2 mM of the chelating agent EGTA), which is thermostatically regulated at 37° C. and aerated with a 95% O2 +5% CO2 mixture. The rings are linked to a STATHAM tension sensor (UC2-GOULD). The optimal tension for each vessel is applied and a stabilization period of 90 min is observed for the preparations. b) Antivasoconstrictive activity of the compounds of the invention in a medium without calcium.

Where a name gives a salt, the structure may show the parent alone.

Consider `O=S(=O)(NCC1CCN(CCCNc2ccc(F)cc2)CC1)c1cccc2cnccc12` [Example 24, N-{[1-[3-(p-fluorophenylamino)propyl]-4-piperidyl]methyl}-5-isoquinolinesulfonamide fumarate], for which the IC50 with rat aortas stood at 4.5 µM. The inhibition at 1 µM in the assay with rabbit aortas was 67%. In addition, the inhibition at 0.1 µM in the assay on rabbit aortas (compound 10^-7 M) turned out to be 38%.

With `CCN(C1CCN(CCCCOc2ccc(F)cc2)CC1)S(=O)(=O)c1cccc2cnccc12` [Example 26, N-Ethyl-N-{1-[4-(p-fluorophenoxy)butyl]-4-piperidyl}-5-isoquinolinesulfonamide dihydrochloride], the IC50 with rat aortas was 5.3 µM. In the assay with rabbit aortas, the inhibition at 1 µM turned out to be 26%.
